From US20260265238A1, “COMPOUNDS AND PHARMACEUTICAL COMPOSITIONS THAT DEGRADE SWI/SNF-RELATED MATRIX-ASSOCIATED ACTIN-DEPENDENT REGULATOR OF CHROMATIN SUBFAMILY A” (Plexium, Inc., priority 2023, published 2026)

Columns and labels:
[1] = target: T1, SMARCA4-HiBiT HeLa cells (protein which is expressed from the SMARCA4 gene) (Homo sapiens, UniProt P51532); assay: SMARCA4 degradation assay (HiBiT-fusion HeLa cell line, 24 h, luminescence); assay type: cell-based
T1 construct: protein which is expressed from the SMARCA2 and SMARCA4 genes; host or cells: HeLa (SMARCA4-HiBiT engineered line)
T1 sequence (P51532 whole entry, the tested form may be a part): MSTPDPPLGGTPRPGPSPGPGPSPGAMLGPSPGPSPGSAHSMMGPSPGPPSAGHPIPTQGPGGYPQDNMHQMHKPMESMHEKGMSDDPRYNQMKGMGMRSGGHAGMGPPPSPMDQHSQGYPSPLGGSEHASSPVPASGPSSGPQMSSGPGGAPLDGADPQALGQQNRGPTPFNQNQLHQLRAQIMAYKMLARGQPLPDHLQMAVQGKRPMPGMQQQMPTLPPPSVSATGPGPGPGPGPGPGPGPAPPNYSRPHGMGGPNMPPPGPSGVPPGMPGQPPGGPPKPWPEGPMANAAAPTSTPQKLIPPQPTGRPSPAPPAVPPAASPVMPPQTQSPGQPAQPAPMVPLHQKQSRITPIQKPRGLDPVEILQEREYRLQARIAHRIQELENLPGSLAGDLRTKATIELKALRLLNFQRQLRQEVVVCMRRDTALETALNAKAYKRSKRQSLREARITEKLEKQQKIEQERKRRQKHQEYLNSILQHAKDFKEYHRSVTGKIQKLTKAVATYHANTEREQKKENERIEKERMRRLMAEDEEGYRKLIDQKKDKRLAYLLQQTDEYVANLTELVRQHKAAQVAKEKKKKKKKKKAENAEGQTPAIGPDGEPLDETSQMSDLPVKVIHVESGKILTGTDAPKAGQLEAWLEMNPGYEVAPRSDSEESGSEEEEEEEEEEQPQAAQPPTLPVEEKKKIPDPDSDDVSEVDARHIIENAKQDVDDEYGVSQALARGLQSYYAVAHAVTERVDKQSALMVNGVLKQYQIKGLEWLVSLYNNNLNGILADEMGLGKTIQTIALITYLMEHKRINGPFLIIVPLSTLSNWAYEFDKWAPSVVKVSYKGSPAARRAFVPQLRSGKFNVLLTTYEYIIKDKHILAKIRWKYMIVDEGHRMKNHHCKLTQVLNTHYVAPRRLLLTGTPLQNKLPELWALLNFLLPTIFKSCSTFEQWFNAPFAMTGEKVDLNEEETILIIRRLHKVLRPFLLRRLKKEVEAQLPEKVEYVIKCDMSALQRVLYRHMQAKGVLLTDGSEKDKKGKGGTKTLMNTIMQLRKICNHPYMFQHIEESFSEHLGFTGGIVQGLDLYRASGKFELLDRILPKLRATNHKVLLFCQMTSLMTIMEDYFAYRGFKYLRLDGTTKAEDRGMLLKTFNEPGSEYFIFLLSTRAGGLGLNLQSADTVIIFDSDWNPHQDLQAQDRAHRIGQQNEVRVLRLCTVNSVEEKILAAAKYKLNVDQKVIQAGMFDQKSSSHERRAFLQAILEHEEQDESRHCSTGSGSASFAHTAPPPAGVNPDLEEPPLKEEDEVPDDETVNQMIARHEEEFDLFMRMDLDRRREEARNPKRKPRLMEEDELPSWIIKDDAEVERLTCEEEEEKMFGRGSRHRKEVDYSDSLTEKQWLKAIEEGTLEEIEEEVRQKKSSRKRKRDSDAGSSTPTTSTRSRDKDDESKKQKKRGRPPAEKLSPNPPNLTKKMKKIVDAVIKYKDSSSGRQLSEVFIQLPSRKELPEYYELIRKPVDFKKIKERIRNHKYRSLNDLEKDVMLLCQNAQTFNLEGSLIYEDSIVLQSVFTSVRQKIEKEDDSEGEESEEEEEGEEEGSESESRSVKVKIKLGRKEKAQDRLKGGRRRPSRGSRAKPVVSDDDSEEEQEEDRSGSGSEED
How it was run: (§1)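 HiBiT-fusion HeLa lines, 8,000 cells/well, overnight attachment; cpd 10-pt series (typically 10 μM–300 pM), 24 h, 37° C. Lysis with LgBiT + HiBiT substrate, 10 min shaking at RT, luminescence read. DC50 from dose-response fit; % degradation also scored at 1 μM.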

[2] = target: T2, SMARCA2-HiBiT HeLa cells (protein which is expressed from the SMARCA2 gene) (Homo sapiens, UniProt P51531); assay: SMARCA2 degradation assay (HiBiT-fusion HeLa cell line, 24 h, luminescence); assay type: cell-based
T2 construct: protein which is expressed from the SMARCA2 and SMARCA4 genes; host or cells: HeLa (SMARCA2-HiBiT engineered line)
T2 sequence (P51531 whole entry, the tested form may be a part): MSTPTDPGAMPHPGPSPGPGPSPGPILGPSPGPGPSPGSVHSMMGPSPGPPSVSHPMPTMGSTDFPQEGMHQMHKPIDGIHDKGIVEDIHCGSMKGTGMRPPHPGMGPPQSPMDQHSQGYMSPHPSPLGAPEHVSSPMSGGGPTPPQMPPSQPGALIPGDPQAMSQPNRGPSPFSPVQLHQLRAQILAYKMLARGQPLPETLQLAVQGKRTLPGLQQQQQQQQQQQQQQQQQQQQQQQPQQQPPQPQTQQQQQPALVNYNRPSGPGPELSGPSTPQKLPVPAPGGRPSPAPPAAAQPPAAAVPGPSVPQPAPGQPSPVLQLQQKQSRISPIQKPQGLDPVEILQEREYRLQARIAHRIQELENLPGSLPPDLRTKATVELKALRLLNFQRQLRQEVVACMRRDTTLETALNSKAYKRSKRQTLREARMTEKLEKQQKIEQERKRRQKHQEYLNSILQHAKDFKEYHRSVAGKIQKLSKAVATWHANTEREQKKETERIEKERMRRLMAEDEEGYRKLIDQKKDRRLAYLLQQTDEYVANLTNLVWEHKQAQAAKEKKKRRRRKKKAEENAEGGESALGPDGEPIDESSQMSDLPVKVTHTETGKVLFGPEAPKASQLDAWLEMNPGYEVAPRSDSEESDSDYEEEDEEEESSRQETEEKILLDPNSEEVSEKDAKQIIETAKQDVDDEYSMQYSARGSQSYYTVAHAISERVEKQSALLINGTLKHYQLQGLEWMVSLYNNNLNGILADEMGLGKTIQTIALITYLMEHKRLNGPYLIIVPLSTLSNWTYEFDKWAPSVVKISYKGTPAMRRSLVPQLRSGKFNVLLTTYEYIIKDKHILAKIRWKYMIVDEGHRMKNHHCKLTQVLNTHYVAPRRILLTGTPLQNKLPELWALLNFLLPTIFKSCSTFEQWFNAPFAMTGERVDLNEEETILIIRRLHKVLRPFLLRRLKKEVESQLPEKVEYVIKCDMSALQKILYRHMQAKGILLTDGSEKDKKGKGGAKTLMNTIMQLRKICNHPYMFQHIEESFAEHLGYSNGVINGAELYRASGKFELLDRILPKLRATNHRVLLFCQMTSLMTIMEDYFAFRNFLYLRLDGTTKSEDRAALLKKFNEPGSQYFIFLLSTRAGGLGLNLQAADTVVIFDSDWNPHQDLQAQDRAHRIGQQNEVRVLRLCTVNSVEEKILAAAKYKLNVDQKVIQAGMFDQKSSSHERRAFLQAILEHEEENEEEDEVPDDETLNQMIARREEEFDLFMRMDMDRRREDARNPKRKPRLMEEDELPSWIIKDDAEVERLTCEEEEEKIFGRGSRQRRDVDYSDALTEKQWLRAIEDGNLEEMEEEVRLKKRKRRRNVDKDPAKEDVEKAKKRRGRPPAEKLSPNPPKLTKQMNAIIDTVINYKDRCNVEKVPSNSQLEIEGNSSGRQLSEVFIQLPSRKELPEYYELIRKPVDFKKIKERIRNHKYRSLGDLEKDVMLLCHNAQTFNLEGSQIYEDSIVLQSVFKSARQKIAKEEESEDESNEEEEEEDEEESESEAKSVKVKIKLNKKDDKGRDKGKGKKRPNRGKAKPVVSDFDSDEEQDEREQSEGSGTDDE
How it was run: as §1

Row | SMILES | DC50 [1] [nM] | inhibition at 1 µM ([1]; @ 1 μM) [%] | DC50 [2] [nM] | SMARCA2 % Degradation @ 1 μM ([2]; @ 1 μM) | inhibition at 1 µM ([1]; 1 μM) [%] | SMARCA2 % Degradation @ 1 μM ([2]; 1 μM)
1 | CC(C)c1cc(C(C)C)n(CC#Cc2nccc(N3CCCN(c4cc(-c5ccccc5O)nnc4N)CC3)n2)n1 [Compound P-104, 2-(6-amino-5-(4-(2-(3-(3,5-diisopropyl-1H-pyrazol-1-yl)prop-1-yn-1-yl)pyrimidin-4-yl)-1,4-diazepan-1-yl)pyridazin-3-yl)phenol] | 500 to 5000 | 30 to 70 | 50 to 500 | +++ (+++=>70%) | – | –
2 | C[C@@H]1CCN(c2cc(-c3ccccc3O)nnc2N)CCN1c1ccnc(C#CCN2CC3CC(C2)O3)n1 [Compound P-179, o-{5-[(R)-5-methyl-4-(2-{3-(6-oxa-3-azabicyclo[3.1.1]hept-3-yl)-1-propynyl}-4-pyrimidinyl)-1,4-diazepan-1-yl]-6-amino-3-pyridazinyl}phenol] | 50 to 500 | 30 to 70 | 50 to 500 | +++ (+++=>70%) | – | –
3 | Nc1nnc(-c2ccccc2O)cc1N1CCCN(c2ccnc(C#CCN3CCN(C(=O)C4CC4)CC3)n2)CC1 [Compound P-365, {4-[3-(4-{4-[3-amino-6-(o-hydroxyphenyl)-4-pyridaziny1]-1,4-diazepan-1-yl}-2-pyrimidinyl)-2-propynyl]-1-piperazinyl}cyclopropylmethanone] | 500 to 5000 | 30 to 70 | 500 to 5000 | ++ (++=30-70%) | – | –
4 | C[C@@H]1CCN(c2cc(-c3ccccc3O)nnc2N)CCN1c1ccnc(C#CCN2CCC[C@@H]2C)n1 [Compound P-233, o-{5-[(R)-4-(2-{3-[(S)-2-methyl-1-pyrrolidinyl]-1-propynyl}-4-pyrimidinyl)-5-methyl-1,4-diazepan-1-yl]-6-amino-3-pyridazinyl} phenol] | < 50 | 30 to 70 | < 50 | ++ (++=30-70%) | – | –
5 | C[C@@H]1CCN(c2cc(-c3ccccc3O)nnc2N)CCN1c1cc(C#CCN2CCCCC2)ncc1F [Compound P-414, 0-(5-{(R)-4-[5-fluoro-2-(3-piperidino-1-propynyl)-4-pyridyl]-5-methyl-1,4-diazepan-1-yl}-6-amino-3-pyridazinyl)phenol] | 50 to 500 | – | 50 to 500 | – | 30 to 70 | + (+=<30%)
6 | C[C@@H]1CCN(c2cc(-c3ccccc3O)nnc2N)CCN1c1cc(C#CCn2ccnc2)ncc1F [Compound P-417, 0-{5-[(R)-4-{5-fluoro-2-[3-(1-imidazolyl)-1-propynyl]-4-pyridyl}-5-methyl-1,4-diazepan-1-yl]-6-amino-3-pyridazinyl} phenol] | 50 to 500 | – | 50 to 500 | – | 30 to 70 | ++ (++=30-70%)
7 | Nc1nnc(-c2ccccc2O)cc1N1C2CCC1CN(c1ccnc(C#CCNC(=O)c3cc4ncccn4n3)n1)C2 [Compound P-78, N-(3-(4-(8-(3-amino-6-(2-hydroxyphenyl)pyridazin-4-yl)-3,8-diazabicyclo[3.2.1]octan-3-yl)pyrimidin-2-yl)prop-y2-yn-1-l)pyrazolo[1,5-a]pyrimidine-2-carboxamide] | 50 to 500 | 30 to 70 | 50 to 500 | +++ (+++=>70%) | – | –
8 | C/C=C/c1nccc(N2CCN(c3cc(-c4ccccc4O)nnc3N)CC[C@H]2C)n1 [Compound P-169, o-(5-{(R)-5-methyl-4-[2-(1-propenyl)-4-pyrimidinyl]-1,4-diazepan-1-yl}-6-amino-3-pyridazinyl)phenol] | 50 to 500 | > 70 | 50 to 500 | +++ (+++=>70%) | – | –
9 | C[C@@H]1CN(CC#Cc2nccc(N3CCCN(c4cc(-c5ccccc5O)nnc4N)CC3)n2)CCO1 [Compound P-313, 0-{5-[4-(2-{3-[(R)-2-methyl-4-morpholinyl]-1-propynyl}-4-pyrimidinyl)-1,4-diazepan-1-yl]-6-amino-3-pyridaziny1}phenol] | 500 to 5000 | < 30 | 50 to 500 | ++ (++=30-70%) | – | –
10 | N#CC1CN(CC#Cc2nccc(N3CCCN(c4cc(-c5ccccc5O)nnc4N)CC3)n2)CCO1 (stereo not shown) [Compound P-310, 4-[3-(4-{4-[3-amino-6-(o-hydroxyphenyl)-4-pyridazinyl]-1,4-diazepan-1-y1}-2-pyrimidinyl)-2-propynyl]-2-morpholinecarbonitrile] | 50 to 500 | 30 to 70 | 50 to 500 | ++ (++=30-70%) | – | –
11 | CNCC#Cc1nccc(N2CCN(c3cc(-c4ccccc4O)nnc3N)CC2)n1 [Compound P-294, 0-[6-amino-5-(4-{2-[3-(methylamino)-1-propynyl]-4-pyrimidinyl}-1-piperazinyl)-3-pyridazinyl]phenol] | < 50 | < 30 | < 50 | ++ (++=30-70%) | – | –
12 | Nc1nnc(-c2ccccc2O)cc1N1CCC2(CCN(c3ccnc(C#CCNC(=O)c4cc5ncccn5n4)n3)C2)CC1 [Compound P-32, N-(3-(4-(8-(3-amino-6-(2-hydroxyphenyl)pyridazin-4-yl)-2,8-diazaspiro[4.5]decan-2-yl)pyrimidin-2-yl)prop-2-yn-1-yl)pyrazolo[1,5-a]pyrimidine-2-carboxamide] | 50 to 500 | 30 to 70 | 50 to 500 | ++ (++=30-70%) | – | –
13 | Nc1nnc(-c2cc(F)ccc2O)cc1N1CCCN(c2ccnc(C#CCNC(=O)c3cc4ncccn4n3)n2)CC1 [Compound P-367, N-[3-(4-{4-[3-amino-6-(5-fluoro-2-hydroxyphenyl)-4-pyridazinyl]-1,4-diazepan-1-y1}-2-pyrimidinyl)-2-propynyl]-1,4,7a-triaza-2-indenecarboxamide] | 500 to 5000 | < 30 | 500 to 5000 | ++ (++=30-70%) | – | –
14 | C[C@@H]1CCN(c2cc(-c3ccccc3O)nnc2N)CCN1c1nc(C#CCN(C)C)ncc1F [Compound P-226, o-{5-[(R)-4-{2-[3-(dimethylamino)-1-propynyl]-5-fluoro-4-pyrimidinyl}-5-mcthyl-1,4-diazcpan-1-yl]-6-amino-3-pyridazinyl}phenol] | < 50 | < 30 | < 50 | ++ (++=30-70%) | – | –
15 | C[C@@H]1CCN(c2cc(-c3ccccc3O)nnc2N)CCN1c1ccnc(/C=C/C2CC2)n1 [Compound P-171, o-(5-{(R)-4-[2-(2-cyclopropylethenyl)-4-pyrimidinyl]-5-methyl-1,4-diazepan-1-yl}-6-amino-3-pyridazinyl)phenol] | 500 to 5000 | < 30 | 50 to 500 | ++ (++=30-70%) | – | –
16 | Nc1nnc(-c2ccccc2O)cc1N1CCCN(c2ccnc(C#CCN3CCC3)n2)CC1 [Compound P-308, 0-[6-amino-5-(4-{2-[3-(1-azetidinyl)-1-propynyl]-4-pyrimidinyl}-1,4-diazepan-1-yl)-3-pyridazinyl]phenol] | 500 to 5000 | 30 to 70 | 500 to 5000 | ++ (++=30-70%) | – | –
17 | Nc1nnc(-c2ccccc2O)cc1N1CCCN(c2ccnc(C#CCNC3CC3)n2)CC1 [Compound P-301, 0-[6-amino-5-(4-{2-[3-(cyclopropylamino)-1-propynyl]-4-pyrimidinyl}-1,4-diazepan-1-yl)-3-pyridazinyl]phenol] | 500 to 5000 | 30 to 70 | 50 to 500 | ++ (++=30-70%) | – | –
18 | C[C@@H]1CCN(c2cc(-c3ccccc3O)nnc2N)CCN1c1ccnc(C#CCN2CCCC2=O)c1 [Compound P-390, 1-[3-(4-{ (R)-4-[3-amino-6-(o-hydroxyphenyl)-4-pyridaziny1]-7-methyl-1,4-diazepan-1-yl}-2-pyridyl)-2-propynyl]-2-pyrrolidinone] | 50 to 500 | – | 50 to 500 | – | > 70 | +++ (+++=>70%)
19 | CC(C)OCC#Cc1cc(N2CCN(c3cc(-c4ccccc4O)nnc3N)CC[C@H]2C)ccn1 [Compound P-383, 0-(5-{(R)-4-[2-(3-isopropoxy-1-propynyl)-4-pyridyl]-5-methyl-1,4-diazepan-1-yl}-6-amino-3-pyridazinyl)phenol] | < 50 | – | < 50 | – | 30 to 70 | +++ (+++=>70%)
20 | COC/C=C/c1nccc(N2CCCN(c3cc(-c4ccccc4O)nnc3N)CC2)n1 [Compound P-159, o-(6-amino-5-{4-[2-(3-methoxy-1-propenyl)-4-pyrimidinyl]-1,4-diazepan-1-yl}-3-pyridazinyl)phenol] | 50 to 500 | 30 to 70 | 50 to 500 | +++ (+++=>70%) | – | –
21 | Nc1nnc(-c2ccccc2O)cc1N1CCCN(c2ccnc(C#CCNC(=O)NC3CC3)n2)CC1 [Compound P-324, 0-[6-amino-5-(4-{2-[3-(3-cyclopropylureido)-1-propynyl]-4-pyrimidinyl}-1,4-diazepan-1-yl)-3-pyridazinyl]phenol] | 500 to 5000 | < 30 | 500 to 5000 | ++ (++=30-70%) | – | –
22 | Nc1nnc(-c2ccccc2O)cc1N1C2CCC1CN(c1ccnc(C#CCCNC(=O)c3cc4ncccn4n3)n1)C2 [Compound P-22, N-(4-(4-(8-(3-amino-6-(2-hydroxyphenyl)pyridazin-4-yl)-3,8-diazabicyclo[3.2.1]octan-3-yl)pyrimidin-2-yl)but-3-yn-1-yl)pyrazolo[1,5-a]pyrimidinc-2-carboxamide] | 500 to 5000 | 30 to 70 | 500 to 5000 | ++ (++=30-70%) | – | –
